From US20070219209A1, “Piperazine Derivatives Of Alkyl Oxindoles” (GYÓGYSZERGYÁR RT., priority 2004, published 2007)
Counter-ions that a name gives are not always drawn.

What was measured:
5-HT7 receptor = molecular target: T1, 5-HT7 receptor (Homo sapiens, UniProt P34969); assay: 5-HT7 receptor binding experiment; conditions: human cloned receptors; ligand 3H-LSD 1.0 nM; non-specific clozapine 25 μM
T1 construct: expressed in transfected cells
Method: For the determination of 5-HT7 receptor binding human cloned receptors were used. The α1 receptor binding was determined from isolated frontal cortex preparation of male Wistar rats weighing 120-200 g. The 5-HT uptake measurements were performed on samples from isolated cortex of male rats. The protein contents of membrane preparations were determined by the method of Lowry (1951).
In the course of 5-HT7 and α1 receptor binding studies the ligands were ^3H-lizergic acid diethyl amide (LSD) (1.0 nM) and ^3H-prazosine (0.3 nM). Clozapine (25 μM) and prazosine (1 μM) were used for the measurement of non-specific bindings. The α1 binding studies were performed according to the methods of Reader and Greengrass (Reader, T. A., Briere, R., Grondin, L.: J. Neural Transm. 68, p. 79 (1987); Greengrass, P., Brenner, R.: Eur. J. Pharmacol. 55, p. 323 (1979)). In the serotonin uptake inhibition studies the ligand was tritiated serotonin, the non-specific ligand was fluoxetine (100 μM). On the test results Ki values were calculated.

T1 sequence (P34969 whole entry): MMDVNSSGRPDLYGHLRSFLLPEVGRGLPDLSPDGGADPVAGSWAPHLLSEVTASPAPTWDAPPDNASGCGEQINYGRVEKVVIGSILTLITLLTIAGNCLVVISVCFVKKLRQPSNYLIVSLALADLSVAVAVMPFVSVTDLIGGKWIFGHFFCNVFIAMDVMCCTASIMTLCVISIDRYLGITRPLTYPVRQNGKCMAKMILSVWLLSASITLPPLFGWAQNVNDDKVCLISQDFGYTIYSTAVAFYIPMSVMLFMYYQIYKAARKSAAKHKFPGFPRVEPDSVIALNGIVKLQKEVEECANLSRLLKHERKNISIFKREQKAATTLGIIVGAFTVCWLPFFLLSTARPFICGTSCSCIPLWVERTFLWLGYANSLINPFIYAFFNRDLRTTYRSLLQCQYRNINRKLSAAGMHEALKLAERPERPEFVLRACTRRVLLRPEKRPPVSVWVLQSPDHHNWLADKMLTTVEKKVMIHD

O=C1Nc2ccc(F)cc2C1CCCCN1CCN(c2cccc(Cl)c2)CC1 (stereo not drawn) [Example 6, 3-{4-[4-(3-Chlorophenyl)-piperazin-1-yl]-butyl}-5-fluoro-1,3-dihydro-2H-indol-2-one monohydrochloride]
Ki (5-HT7 receptor): < 100 µM

O=C1Nc2ccc(F)cc2C1CCCCN1CCN(c2cccc(Cl)c2)CC1 (stereo not drawn) (as salt: hydrochloride) [Example 6, 3-{4-[4-(3-Chlorophenyl)-piperazin-1-yl]-butyl}-5-fluoro-1,3-dihydro-2H-indol-2-one monohydrochloride]
melting point: 180 to 184 °C

O=C1Nc2ccccc2C1CCCCN1CCN(c2ccc(Cl)c(Cl)c2)CC1 (stereo not drawn) [Example 12, 3-{4-[4-(3,4-Dichlorophenyl)-piperazin-1-yl]-butyl}-1,3-dihydro-2H-indol-2-one]
Ki (5-HT7 receptor): < 100 µM | melting point: 112 to 114 °C

O=C1Nc2ccc(F)cc2C1CCCCN1CCN(c2ccc(Cl)cc2)CC1 (stereo not drawn) [Example 7, 3-{4-[4-(4-Chlorophenyl)-piperazin-1-yl]-butyl}-5-fluoro-1,3-dihydro-2H-indol-2-one monohydrochloride]
Ki (5-HT7 receptor): < 100 µM

Cc1ccc2c(c1)C(CCCCN1CCN(c3ccc(Cl)cc3)CC1)C(=O)N2 (stereo not drawn) [Example 10, 3-{4-[4-(4-Chlorophenyl)-piperazin-1-yl]-butyl}-5-methyl-1,3-dihydro-2H-indol-2-one]
Ki (5-HT7 receptor): < 100 µM | melting point: 159 to 161 °C

O=C1Nc2ccccc2C1CCCCN1CCN(c2ccc(F)c(Cl)c2)CC1 (stereo not drawn) (as salt: hydrochloride) [Example 14, 3-{4-[4-(3-Chloro-4-fluorophenyl)-piperazin-1-yl]-butyl}-1,3-dihydro-2H-indol-2-one monohydrochloride]
melting point: 180 to 183 °C

O=C1Nc2ccccc2C1CCCCN1CCN(c2ccc(Cl)c(C(F)(F)F)c2)CC1 (stereo not drawn) [Example 15, 3-{4-[4-(4-Chloro-3-trifluoromethylphenyl)-piperazin-1-yl]-butyl}-1,3-dihydro-2H-indol-2-one monohydrochloride]
Ki (5-HT7 receptor): < 100 µM

O=C1Nc2ccc(F)cc2C1CCCCN1CCN(c2ccc(Cl)cc2)CC1 (stereo not drawn) (as salt: hydrochloride) [Example 7, 3-{4-[4-(4-Chlorophenyl)-piperazin-1-yl]-butyl}-5-fluoro-1,3-dihydro-2H-indol-2-one monohydrochloride]
melting point: 193 to 196 °C

O=C1Nc2ccccc2C1CCCCN1CCN(c2ccc(F)cc2)CC1 (stereo not drawn) [Example 11, 3-{4-[4-(4-Fluorophenyl)-piperazin-1-yl]-butyl}-1,3-dihydro-2H-indol-2-one]
Ki (5-HT7 receptor): < 100 µM | melting point: 113 to 115 °C

O=C1Nc2ccccc2C1CCCCN1CCN(c2ccc(Cl)cc2)CC1 (stereo not drawn) [Example 17, 3-{4-[4-(4-Chlorophenyl)-piperazin-1-yl]-butyl}-1,3-dihydro-2H-indol-2-one]
Ki (5-HT7 receptor): < 100 µM | melting point: 136 to 137 °C

O=C1Nc2ccc(F)cc2C1CCCCN1CCN(c2ccccc2)CC1 (stereo not drawn)
melting point: 140 to 144 °C

O=C1Nc2ccc(F)cc2C1CCCCN1CCN(c2ccc(F)cc2)CC1 (stereo not drawn) [Example 16, 5-Fluoro-3-{4-[4-(4-fluorophenyl)-piperazin-1-yl]-butyl}-1,3-dihydro-2H-indol-2-one]
Ki (5-HT7 receptor): < 100 µM | melting point: 135 to 137 °C

Cc1ccc2c(c1)C(CCCCN1CCN(c3cccc(Cl)c3)CC1)C(=O)N2 (stereo not drawn) [Example 9, 3-{4-[4-(3-Chlorophenyl)-piperazin-1-yl]-butyl}-5-methyl-1,3-dihydro-2H-indol-2-one]
Ki (5-HT7 receptor): < 100 µM | melting point: 122 to 124 °C

O=C1Nc2cc(F)ccc2C1CCCCN1CCN(c2ccc(Cl)cc2)CC1 (stereo not drawn) (as salt: hydrochloride) [Example 8, 3-{4-[4-(4-Chlorophenyl)-piperazin-1-yl]-butyl}-6-fluoro-1,3-dihydro-2H-indol-2-one monohydrochloride]
melting point: 149 to 151 °C

O=C1Nc2cc(F)ccc2C1CCCCN1CCN(c2ccc(Cl)cc2)CC1 (stereo not drawn) [Example 8, 3-{4-[4-(4-Chlorophenyl)-piperazin-1-yl]-butyl}-6-fluoro-1,3-dihydro-2H-indol-2-one monohydrochloride]
Ki (5-HT7 receptor): < 100 µM

O=C1Nc2ccccc2C1CCCCN1CCN(c2cccc(Cl)c2)CC1 (stereo not drawn) [Example 18, 3-{4-[4-(3-Chlorophenyl)-piperazin-1-yl]-butyl}-1,3-dihydro-2H-indol-2-one]
Ki (5-HT7 receptor): < 100 µM | melting point: 112 to 114 °C

O=C1Nc2ccc(F)cc2C1CCCCN1CCN(c2ccc(Cl)c(Cl)c2)CC1 (stereo not drawn) [Example 23, 3-{4-[4-(3,4-dichlorophenyl)-piperazine-1-yl]-butyl}-5-fluoro-1,3-dihydro-2H-indol-2-one]
melting point: 118 to 120 °C

O=C1Nc2ccccc2C1CCCCN1CCN(c2ccc(Cl)c(C(F)(F)F)c2)CC1 (stereo not drawn) (as salt: hydrochloride) [Example 15, 3-{4-[4-(4-Chloro-3-trifluoromethylphenyl)-piperazin-1-yl]-butyl}-1,3-dihydro-2H-indol-2-one monohydrochloride]
melting point: 123 to 125 °C

O=C1Nc2ccccc2C1CCCCN1CCN(c2ccc(F)c(Cl)c2)CC1 (stereo not drawn) [Example 14, 3-{4-[4-(3-Chloro-4-fluorophenyl)-piperazin-1-yl]-butyl}-1,3-dihydro-2H-indol-2-one monohydrochloride]
Ki (5-HT7 receptor): < 100 µM

O=C1Nc2ccccc2C1CCCCN1CCN(c2ccccc2)CC1 (stereo not drawn) [Example 24, 3-[4-(4-phenyl-piperazin-1-yl)-butyl]-1,3-dihydro-2H-indol-2-one]
melting point: 110 to 113 °C
